Like-named read-outs stand apart in the source and are kept apart here.

A short description of one data set: in vitro. How it is done:
Typically the total volume used for the experiment was 500 μl. The final concentrations of the reaction components were as follows:
The reacton mixtures were made up and incubated at 37° C. At appropriate times aliquots of 25 μl were removed and added to 65 μl ice-cold methanol. These solutions were our at −20° C. and typically overnight. After incubation samples were inutes at high speed in a microcentrifuge. The supernatant was nd the extract was dried under vacuum in a LabConco Centrivap Concentrator. The dried extracts were resuspended in dH2O and filtered to remove particulate before analysis on reverse phase HPLC.
The reverse phase HPLC columns used for the analysis were either a Phenomenex C18 Aqua column (2×100 mm) or the Phenomenex C18 Aqua column (3×150 mm) used with the appropriate guard column. The HPLC was run at 0.2 ml/min (for the 2×100 mm column) or at 0.5 ml/min (for the 3×150 mm column) with the following buffer system: 5 mM tetrabutylammonium acetate, 50 mM ammonium phosphate, and an acetonitrile gradient running from 5% up to as high as 60%. The amount of remaining parent compound at each time point was used to determine the half-life of the compound. […] Unmodified nucleoside triphosphates were used as positive controls.

Data set [1] deals with T1, HIV Reverse Transcriptase (Type B, 66 kDa subunit) (Human immunodeficiency virus type 1 group M subtype B, UniProt P04585).
T1 construct: purified HIV Reverse Transcriptase (Type B, 66 kDa subunit)
Kind of data set: HIV Reverse Transcriptase inhibition assays (RNA-directed DNA polymerization, PicoGreen fluorescence). It is filed as biochemical. As to conditions: Table 1; template (homopolymer or heteropolymer RNA) not stated; read-out: Ki, Inhibition of HIV Reverse Transcriptase by Nucleotide Mimics. The protocol: The assays employed to measure inhibition of HIV Reverse Transcriptase (HIV RT) catalyzed/RNA-directed DNA polymerization are described below. The effectiveness of the compounds of the present invention as inhibitors of HIV RT-catalyzed DNA polymerization was measured in the following assays.
This assay was used to measure the ability of the nucleotide mimics of the present invention to inhibit the enzymatic synthesis of complementary strand DNA from a DNA-primed template of homopolymeric RNA. This assay is a modification of a published procedure (Seville, et al., “Fluorometric Assay for DNA Polymerases and Reverse Transcriptase”, BioTechniques 1996, 21, 664-72).
The compounds were tested at various concentrations up to 500 μM final concentration. DNA polymerase activity was measured in a reaction buffer containing primed-RNA template and dTTP diluted to appropriate concentrations in assay buffer. Nucleotide mimics of the present invention were diluted in buffer and pipetted into the wells of a 96-well plate. The reaction was initiated by addition of enzyme and allowed to proceed at 37° C. for 10 minutes. The reaction was quenched by addition of 5 μL 0.2 M EDTA, pH 8.0.
200 μL of diluted PicoGreen dsDNA Quantitation Reagent (Molecular Probes, Inc, Eugene, Oreg.) was added to each well of a 96-well plate and incubated at room temperature for 5 minutes. Plate wells were read on a microplate fluorometer (Molecular Devices Corp., Sunnyvale, Calif.). The wells were excited at 480 nm and the fluorescence emission intensity (RFU) was measured at 520 nm. The percentage of inhibition was calculated according to the following equation:
% Inhibition=[1−(RFU in test reaction−RFU in blank)/(RFU in control reaction−RFU in blank)]×100.
Each inhibitor was titrated over an appropriate range of concentrations, and inhibition constants were determined using the following equations:
v=Vm[S]/(Km(1+[I]/Ki)+[S])
Certain compounds of the present invention were also tested to determine their ability to inhibit HIV RT-catalyzed DNA polymerization on a heteropolymeric primed-RNA template in the presence of all four natural deoxynucleotide triphosphate (dNTP) substrates. This assay is a modification of a published procedure (Parker et al., “Mechanism of Inhibition of Human Immunodeficiency Virus Type 1 Reverse Transcriptase and Human DNA Polymerases α, β, and γ by the 5′-Triphosphates of Carbovir,3′-Azido-3′-deoxythymidine,2′-3′-Dideoxyguanosine, and 3′-Deoxythymidine”, J. Biol. Chem. 1991, 266 (3), 1754-62).
HIV RT DNA polymerase activity was measured in a reaction buffer containing primed-ribosomal RNA template and dNTPs diluted to appropriate concentrations in assay buffer and pipetted into 1.5 mL microcentrifuge tubes. Nucleotide mimics of the present invention were diluted in buffer and tested at various concentrations up to 5 μM final concentration. The reaction was initiated by addition of enzyme and allowed to proceed at 42° C. for 60 to 90 minutes. The reaction was quenched by addition of 12 μL 0.2 M EDTA, pH 8.0.
50 μL each of reaction was transferred to the well of a 96-well plate (in duplicate). 200 μL of diluted PicoGreen dsDNA Quantitation Reagent was added to each well of a 96-well plate and incubated at room temperature for 5 minutes. Plate wells were read on a microplate fluorometer. The wells were excited at 480 nm and the fluorescence emission intensity (RFU) was measured at 520 nm. The percentage of inhibition and inhibition constants […] were determined for representative compounds as described above.

For another data set, the system named is Escherichia coli. Kind of data set: Antimicrobial assay, minimal inhibitory concentration. Conditions: for MIC: Escherichia coli, read-out: E. coli MIC. In kind it is cell-based. How it is done:
To examine the antimicrobial potential of the nucleotide mimics of the present invention an assay was employed that allowed the screening of a large number of compounds simultaneously. The type of bacteria chosen to screen the compounds are organisms associated with human disease and represent major groups of bacteria based on their structure and metabolism. Bacterial cultures of Escherichia coli and Staphylococcus aureus were incubated overnight at 37° C. in a shaker incubator. A lawn of each overnight bacterial culture was made by plating […] of bacteria on agar plates containing Nutrient Broth. Immediately after plating, sterile blank paper discs were put on top of the lawn and a compound was applied to each blank paper disc. Plates were then incubated overnight and examined for the inhibition of bacterial growth the following day. […] The plates were incubated overnight at 37° C. and then examined spectrophotometrically at 600 nm to determine the minimum concentration of each compound that inhibited replication of bacteria as determined by no increase in absorbance at 600 nm.

The nature of data set [2]: Stability assessment using cell extracts. As to conditions: 50% CEM cell extract. How it is done:
The stability of compounds in cell extracts was examined as follows:
Cell lysis buffer was added to cell pellets and the cells frozen and thawed 3× using dry ice. The lysis buffer (LB) was composed of the following: 50 mM Tris-HCl, pH 7.4 (100 μl/ml 10× stock), 20% glycerol (200 μl/ml), and 0.5% Triton X-100 (5 μl/ml). 100 μl of LB was added to each microfuge tube containing 10^7 frozen CEM cells. After the cells were lysed the extracts were centrifuged at high speed in a microcentrifuge for 5 minutes and the clarified cell extract transferred to a new tube. The cell stability reaction mixtures contained concentrations of buffer, magnesium, nucleotide, and cell extract as shown below:
The reaction mixtures were incubated at 37° C. At each time point, including at time zero, 12.5 μl aliquots were added to 40 μl ice-cold methanol. […] The samples were incubated in methanol for at least 60 minutes and typically overnight at −20° C. prior to further processing. The cell extracts were centrifuged at high speed in refrigerated microcentrifuge for 20 minutes and the supernatant transferred to a new tube. The extract was then dried under vacuum in a LabConco Centrivap Concentrator. The samples were then resuspended in 40 or 50 μl dH2O, filtered to remove any particulate, and analyzed by reverse phase HPLC.
The reverse phase HPLC columns used for the analysis were either a Phenomenex C18 Aqua column (2×100 mm) or the Phenomenex C18 Aqua column (3×150 mm) used with the appropriate guard column. The HPLC flow rate was either 0.2 ml/min (for the 2×100 mm column) or 0.5 ml/min (for the 3×150 mm column) with the following buffer system: 5 mM tetrabutylammonium acetate, 50 mM ammonium phosphate, and an acetonitrile gradient running from 5% up to as high as 60%. The amount of remaining parent compound at each time point was used to determine the half-life of the compound. […] Unmodified nucleoside triphosphates were used as positive controls.

[3] abbreviates: overnight at 37° C., tested 0-200 μg/ml, NA = Not active.
Setting [4] is: value in brackets beside the μg/ml value.

For `BP(=O)(OCC1OC(n2cc(C)c(=O)[nH]c2=O)CC1N=[N+]=[N-])OP(=O)(O)C(F)(F)P(=O)(O)O` (single isomer, unassigned; isomer 3) [Compound 27-Isomer, 3′-Azido-3′-deoxythymidine 5′-α-P-borano-β,γ-(difluoromethylene)triphosphate], the “Half-Life, Serum Half-Lives of AZT Triphosphate Mimic Prodrugs” value in the data set “in vitro” (bovine, serum) was greater than 48 h.
By Ki is commonly meant the equilibrium dissociation constant of an inhibitor or competing ligand from its target. On to `Cc1cn([C@H]2C[C@H](N=[N+]=[N-])[C@@H](COP(=O)(O)NP(=O)(O)O)O2)c(=O)[nH]c1=O` [Compound 8, 3′-azido-3′-deoxythymidine 5′-imidodiphosphate], for which the inhibition constant (Ki) in data set [1] amounted to 4.4 µM.
Regarding `Cc1cn([C@H]2C[C@H](N=[N+]=[N-])[C@@H](COP(=O)(O)OP(=O)(O)OP(=O)(O)O)O2)c(=O)[nH]c1=O` [AZT Triphosphate, 3′-azido-3′-deoxythymidine (AZT, an anti-HIV drug) triphosphate, reference compound], the “Half-Life, Serum Half-Lives of NTPs and AZT Triphosphate Mimics” value in “in vitro” (bovine, serum) was 2 h.
For the molecule `[BH3-][P+](O)(OCC1OC(n2cc(C)c(=O)[nH]c2=O)CC1N=[N+]=[N-])OP(=O)(O)C(F)(F)P(=O)(O)O` (single isomer, unassigned) [Compound 27-isomer 2, 3′-Azido-3′-deoxythymidine 5′-α-P-borano-β,γ-(difluoromethylene)triphosphate], the Ki in data set [1] is 0.061 µM. Further, the “E. coli MIC” value with Escherichia coli (setting [3]) is 50 mg/L; with Escherichia coli (setting [4]) it was “(93) uM”.
`Cc1cn(C2CC(N=[N+]=[N-])C(COP(O)(=S)OP(=O)(O)C(F)(F)P(=O)(O)O)O2)c(=O)[nH]c1=O` (stereo not drawn) [Compound 29, 3′-Azido-3′-deoxythymidine 5′-α-P-thio-β,γ-(difluoromethylene)triphosphate]: in data set [1], the Ki was determined as 0.09 µM.
The half-life is the time needed for the level to fall by half in the phase considered. As to `Nc1ncnc2c1ncn2[C@@H]1O[C@H](COP(=O)(O)OP(=O)(O)OP(=O)(O)O)[C@@H](O)[C@H]1O` [Adenosine Triphosphate, reference compound], in data set [2] (Table 10, 37° C., 500 μM, time points through 48 hours), the “Half-Life, Cell Extract Half-Lives of AZT 5'-α-P-borano-β,γ-(difluoromethylene) triphosphate Prodrugs” value was “.25 h”. Besides, the “Half-Life, Cell Extract Half-Lives of Gemcitibine 5'-Methylendiphosphonate and its Prodrugs” value in data set [2] (Table 11, 37° C., 500 μM, time points through 48 hours) is “.25 h”. For the same molecule, the half-life at 500 μM in data set [2] (human, pH 7.4) was 0.25 h; in the data set “in vitro” (bovine, 50% fetal calf serum, Serum Half-Lives of AZT Triphosphate Mimic Prodrugs, Table 7, 37° C., 500 μM, time points through 48 hours) it was 1.5 h; in “in vitro” (bovine, 50% fetal calf serum, Serum Half-Lives of Gemcitibine Diphosphate Mimics and Their Prodrugs, Table 8, 37° C., 500 μM, time points through 48 hours), 2.5 h. Also, in the data set “in vitro” (Table 6, 50% fetal calf serum, 37° C., 500 μM, time points through 48 hours), the “Half-Life, Serum Half-Lives of NTPs and AZT Triphosphate Mimics” value was determined as 2 h.
As for “3′-Azido-3′-deoxythymidine 5′-α-P-borano-β,γ-imidotriphosphate [Compound 23]”, in the data set “in vitro” (bovine, serum), the “Half-Life, Serum Half-Lives of NTPs and AZT Triphosphate Mimics” value was 36 h. Also, the Ki in data set [1] came out at 0.105 µM. Moreover, the “E. coli MIC” value in the data set with Escherichia coli (setting [3]) is 50 to 100 mg/L; in the data set with Escherichia coli (setting [4]), “(99-198) uM”.
A word on the MIC: it is the smallest concentration in the dilution series that meets the test's criterion for growth inhibition. For `Cc1cn([C@H]2C[C@@H](N=[N+]=[N-])[C@@H](COP(=O)(O)NP(=O)(OCCSC(=O)C(C)(C)C)OCCSC(=O)C(C)(C)C)O2)c(=O)[nH]c1=O` [Compound 71, 3′-Azido-3′-deoxythymidine 5′-β,β-O-di(S-pivaloyl-2-thioethyl)imidodiphosphate], the minimum inhibitory concentration (MIC) in the data set with Escherichia coli (setting [3]) came out at 20 mg/L; in the data set on Escherichia coli (setting [4]) it was 28 µM.
Consider `BP(=O)(OC[C@@H]1O[C@H](n2cc(C)c(=O)[nH]c2=O)C[C@H]1N=[N+]=[N-])OP(=O)(O)OP(=O)(O)O` (stereo partly drawn) [AZT 5′-α-P-boranotriphosphate, reference compound], for which the “Half-Life, Serum Half-Lives of NTPs and AZT Triphosphate Mimics” value in “in vitro” (bovine, serum) was found to be 6 h.
For `Cc1cn([C@H]2C[C@H](O)[C@@H](COP(=O)(O)OP(=O)(O)OP(=O)(O)O)O2)c(=O)[nH]c1=O` [Thymidine Triphosphate, reference compound], the “Half-Life, Serum Half-Lives of NTPs and AZT Triphosphate Mimics” value in the data set “in vitro” (bovine, serum, 500 μM) came to 2 h.
`Cc1cn([C@H]2C[C@H](N=[N+]=[N-])[C@@H](CO)O2)c(=O)[nH]c1=O` [AZT, 3′-azido-3′-deoxythymidine, reference compound]: the MIC in the data set on Escherichia coli (setting [3]) was found to be 2 mg/L; in the data set on Escherichia coli (setting [4]), 7.5 µM.
On to `BP(=O)(OC[C@H]1O[C@@H](n2cc(C)c(=O)[nH]c2=O)C[C@@H]1N=[N+]=[N-])OP(=O)(O)C(F)P(=O)(O)O` (stereo partly drawn) [Compound 25, 3′-Azido-3′-deoxythymidine 5′-α-P-borano-β,γ-(fluoromethylene)triphosphate], for which the Ki in data set [1] was found to be 0.027 µM.
